Assay results as given in article PMC4801743 (Journal of enzyme inhibition and medicinal chemistry, 2015).
Blank lines part the entries; values can stand above or below the compound they belong to.

Legend:
PHM [1] = target: T1, PHM (Rattus norvegicus, UniProt P14925); test: PHM inactivation by the dilution method; type: biochemical; settings: for Inactivation of PHM (qualitative): dilution method, in the presence of ascorbate and O2; for kinact/KI: pH 6, read-out: (kinact/KI)obs
T1 sequence (P14925 36-715 isoform P14925-2 limits assumed): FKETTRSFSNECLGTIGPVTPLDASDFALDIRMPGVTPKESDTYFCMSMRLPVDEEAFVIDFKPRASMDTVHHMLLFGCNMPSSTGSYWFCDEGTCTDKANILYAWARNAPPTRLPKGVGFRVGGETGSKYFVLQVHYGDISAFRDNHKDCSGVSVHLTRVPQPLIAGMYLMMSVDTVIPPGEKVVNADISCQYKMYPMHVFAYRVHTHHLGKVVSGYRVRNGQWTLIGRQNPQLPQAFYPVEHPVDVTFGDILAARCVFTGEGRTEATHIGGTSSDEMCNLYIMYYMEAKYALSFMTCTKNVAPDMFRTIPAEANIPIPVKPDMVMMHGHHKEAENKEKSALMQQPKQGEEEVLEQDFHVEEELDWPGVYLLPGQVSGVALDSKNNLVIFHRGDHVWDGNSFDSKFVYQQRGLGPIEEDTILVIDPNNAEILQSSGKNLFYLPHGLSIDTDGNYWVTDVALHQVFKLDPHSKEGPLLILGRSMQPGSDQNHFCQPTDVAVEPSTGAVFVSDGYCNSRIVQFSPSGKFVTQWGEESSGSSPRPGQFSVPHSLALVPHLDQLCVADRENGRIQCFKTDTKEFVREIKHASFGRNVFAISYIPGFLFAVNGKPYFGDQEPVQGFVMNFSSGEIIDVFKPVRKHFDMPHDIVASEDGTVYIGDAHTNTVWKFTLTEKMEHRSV

PHM [2] = target: T1, PHM; test: Inhibition of the PHM-dependent consumption of O2; type: biochemical
P450 = settings: inactivation of P450; cited from earlier work
[3] = system: dopamine β-monooxygenase (DβM); settings: inactivation of DβM; cited from earlier work
PHM [4] = settings: cited from earlier work; for Ki: PHM inactivator; for Km: PHM substrate
PHM [5] = target: T1, PHM; test: Tiopronin protection against the cinnamate-mediated inactivation of PHM; type: biochemical; settings: 60 μM tiopronin, 7.5 mM cinnamate, 2 h

Inactivation of PHM (qualitative) (PHM [1]): inactivate PHM | kinact/KI (PHM [1]): 333 M⁻¹ s⁻¹ | (kinact/KI)obs relative to cinnamate (PHM [1]; ratio to the (kinact/KI)obs value for cinnamate): ~ 500 fold
Compound: CN(C)c1cccc2c(S(=O)(=O)Nc3ccc(C=CC(=O)O)cc3)cccc12 [N-Dansyl-4-aminocinnamic acid]

Compound: O=C(O)C=Cc1ccc2c(c1)OCO2 [3,4-Methylenedioxycinnamic acid]
Ki (PHM [2]): 300 ± 40 µM

Compound: C=CCC(C(N)=O)C(C)C (centres unmarked) [2-isopropyl-4-pentenamide]
partition ratio (P450): 200–300

Inactivation of PHM (qualitative) (PHM [1]): inactivate PHM | kinact/KI (PHM [1]): 0.5 M⁻¹ s⁻¹
Compound: CN(C)c1ccc(C=CC(=O)O)cc1 [N,N-Dimethyl-4-aminocinnamic acid]

Ki (PHM [2]): 200 ± 20 µM
Compound: O=C(O)C=Cc1ccccc1C(F)(F)F [2-Trifluoromethylcinnamic acid]

Compound: phenyl(aminomethyl)ethane
partition ratio, kcat/kinact [3]: 900

Inactivation of PHM (qualitative) (PHM [1]): inactivate PHM | kinact/KI (PHM [1]): 1 M⁻¹ s⁻¹ | Ki (PHM [2]): 500 ± 60 µM
Compound: Nc1ccc(C=CC(=O)O)cc1 [4-Aminocinnamic acid]

Compound: O=C(O)/C=C/C(=O)c1ccccc1 [benzoylacrylate, trans-benzoylacrylate]
Ki (PHM [4]): 200 µM

Protection of PHM from cinnamate-mediated inactivation (PHM [5]): did protect PHM from inactivation
Compound: CC(S)C(=O)NCC(=O)O (centres unmarked) [tiopronin]

Compound: O=C(O)C/C=C/c1ccccc1 [PBA, trans-4-phenyl-3-butenoate]
Ki (PHM [4]): 50 µM

Compound: O=C(O)CNC(=O)CCc1ccccc1 [hydrocinnamoylglycine, N-hydrocinnamoylglycine]
Km (PHM [4]): 900 µM

Compound: O=C(O)CNC(=O)C=Cc1ccccc1 [cinnamoylglycine, N-cinnamoylglycine]
Km (PHM [4]): 200 µM
